Results taken from the NIST ThermoML archive (doi:10.1016/j.fluid.2019.05.003).
Numbers after ± are expanded uncertainties.

Experiment: xn = mol fraction of the nth substance listed
Details: 101 kPa, Liquid; for viscosity: Falling or rolling sphere viscometry; for mass density: Vibrating tube method

In the case of CC[n+]1ccccc1.[Br-] [1-ethylpyridinium bromide] + O, the viscosity (298.15 K, x1 = 0.027) is reported as 1.203 ± 0.073 mPa·s, the viscosity (298.15 K, x1 = 0.049) is reported as 1.483 ± 0.09 mPa·s and the viscosity (298.15 K, x1 = 0.063) is reported as 1.75 ± 0.11 mPa·s. For the same compound, the viscosity (298.15 K, x1 = 0.086) was 2.18 ± 0.13 mPa·s, the viscosity (298.15 K, x1 = 0.101) was 2.507 ± 0.15 mPa·s and the viscosity (298.15 K, x1 = 0.147) was 3.769 ± 0.23 mPa·s. It also gave a viscosity (298.15 K, x1 = 0.184) of 5.028 ± 0.3 mPa·s, a viscosity (298.15 K, x1 = 0.213) of 6.298 ± 0.38 mPa·s and a viscosity (298.15 K, x1 = 0.25) of 8.734 ± 0.53 mPa·s. The viscosity (298.15 K, x1 = 0.299) was 10.5 ± 0.64 mPa·s, the viscosity (298.15 K, x1 = 0.341) was 13.33 ± 0.81 mPa·s and the viscosity (298.15 K, x1 = 0.401) was 19.65 ± 1.2 mPa·s. It also gave a viscosity (298.15 K, x1 = 0.451) of 25.82 ± 1.6 mPa·s, a mass density (298.15 K, x1 = 0.027) of 1069.4 ± 0.5 kg/m3 and a mass density (298.15 K, x1 = 0.049) of 1113.8 ± 0.5 kg/m3. For the same compound, the mass density (298.15 K, x1 = 0.063) was 1139.5 ± 0.4 kg/m3, the mass density (298.15 K, x1 = 0.086) was 1174.3 ± 0.4 kg/m3 and the mass density (298.15 K, x1 = 0.101) was 1194.1 ± 0.3 kg/m3. It also gave a mass density (298.15 K, x1 = 0.147) of 1243.9 ± 0.4 kg/m3, a mass density (298.15 K, x1 = 0.184) of 1274.6 ± 0.4 kg/m3 and a mass density (298.15 K, x1 = 0.213) of 1294.5 ± 0.4 kg/m3. The mass density (298.15 K, x1 = 0.25) was 1315.3 ± 0.5 kg/m3, the mass density (298.15 K, x1 = 0.299) was 1337 ± 0.6 kg/m3 and the mass density (298.15 K, x1 = 0.341) was 1352.3 ± 0.7 kg/m3. The mass density (298.15 K, x1 = 0.401) was 1370.9 ± 0.8 kg/m3, the mass density (298.15 K, x1 = 0.451) was 1381.1 ± 1 kg/m3 and the viscosity (303.15 K, x1 = 0.027) was 1.071 ± 0.065 mPa·s. For the same compound, the viscosity (303.15 K, x1 = 0.049) was 1.339 ± 0.081 mPa·s, the viscosity (303.15 K, x1 = 0.063) was 1.554 ± 0.094 mPa·s and the viscosity (303.15 K, x1 = 0.086) was 1.913 ± 0.12 mPa·s. It also gave a viscosity (303.15 K, x1 = 0.101) of 2.215 ± 0.13 mPa·s, a viscosity (303.15 K, x1 = 0.147) of 3.293 ± 0.2 mPa·s and a viscosity (303.15 K, x1 = 0.184) of 4.402 ± 0.27 mPa·s. It also gave a viscosity (303.15 K, x1 = 0.213) of 5.427 ± 0.33 mPa·s, a viscosity (303.15 K, x1 = 0.25) of 7.646 ± 0.46 mPa·s and a viscosity (303.15 K, x1 = 0.299) of 8.868 ± 0.54 mPa·s. For the same compound, the viscosity (303.15 K, x1 = 0.341) was 11.27 ± 0.68 mPa·s, the viscosity (303.15 K, x1 = 0.401) was 16.67 ± 1 mPa·s and the viscosity (303.15 K, x1 = 0.451) was 21.6 ± 1.3 mPa·s. It also gave a mass density (303.15 K, x1 = 0.027) of 1067.4 ± 0.5 kg/m3, a mass density (303.15 K, x1 = 0.049) of 1111.4 ± 0.5 kg/m3 and a mass density (303.15 K, x1 = 0.063) of 1137 ± 0.4 kg/m3. The mass density (303.15 K, x1 = 0.086) was 1171.6 ± 0.4 kg/m3, the mass density (303.15 K, x1 = 0.101) was 1191.2 ± 0.3 kg/m3 and the mass density (303.15 K, x1 = 0.147) was 1240.8 ± 0.4 kg/m3. It also gave a mass density (303.15 K, x1 = 0.184) of 1271.3 ± 0.4 kg/m3, a mass density (303.15 K, x1 = 0.213) of 1291.1 ± 0.4 kg/m3 and a mass density (303.15 K, x1 = 0.25) of 1311.9 ± 0.5 kg/m3. The mass density (303.15 K, x1 = 0.299) was 1333.6 ± 0.5 kg/m3, the mass density (303.15 K, x1 = 0.341) was 1348.8 ± 0.7 kg/m3 and the mass density (303.15 K, x1 = 0.401) was 1367.4 ± 0.8 kg/m3. For the same compound, the mass density (303.15 K, x1 = 0.451) was 1378 ± 1 kg/m3, the viscosity (308.15 K, x1 = 0.027) was 0.969 ± 0.059 mPa·s and the viscosity (308.15 K, x1 = 0.049) was 1.207 ± 0.073 mPa·s. The viscosity (308.15 K, x1 = 0.063) was 1.393 ± 0.084 mPa·s, the viscosity (308.15 K, x1 = 0.086) was 1.728 ± 0.11 mPa·s and the viscosity (308.15 K, x1 = 0.101) was 1.966 ± 0.12 mPa·s. For the same compound, the viscosity (308.15 K, x1 = 0.147) was 2.911 ± 0.18 mPa·s, the viscosity (308.15 K, x1 = 0.184) was 3.821 ± 0.23 mPa·s and the viscosity (308.15 K, x1 = 0.213) was 4.737 ± 0.29 mPa·s. It also gave a viscosity (308.15 K, x1 = 0.25) of 6.664 ± 0.4 mPa·s, a viscosity (308.15 K, x1 = 0.299) of 7.711 ± 0.47 mPa·s and a viscosity (308.15 K, x1 = 0.341) of 9.653 ± 0.59 mPa·s. For the same compound, the viscosity (308.15 K, x1 = 0.401) was 14.3 ± 0.87 mPa·s, the viscosity (308.15 K, x1 = 0.451) was 18.22 ± 1.1 mPa·s and the mass density (308.15 K, x1 = 0.027) was 1065.2 ± 0.5 kg/m3. For the same compound, the mass density (308.15 K, x1 = 0.049) was 1109 ± 0.4 kg/m3, the mass density (308.15 K, x1 = 0.063) was 1134.3 ± 0.4 kg/m3 and the mass density (308.15 K, x1 = 0.086) was 1168.7 ± 0.4 kg/m3. For the same compound, the mass density (308.15 K, x1 = 0.101) was 1188.2 ± 0.3 kg/m3, the mass density (308.15 K, x1 = 0.147) was 1237.6 ± 0.4 kg/m3 and the mass density (308.15 K, x1 = 0.184) was 1268 ± 0.4 kg/m3. The mass density (308.15 K, x1 = 0.213) was 1287.7 ± 0.4 kg/m3, the mass density (308.15 K, x1 = 0.25) was 1308.5 ± 0.5 kg/m3 and the mass density (308.15 K, x1 = 0.299) was 1330.2 ± 0.5 kg/m3. It also gave a mass density (308.15 K, x1 = 0.341) of 1345.4 ± 0.7 kg/m3, a mass density (308.15 K, x1 = 0.401) of 1364 ± 0.8 kg/m3 and a mass density (308.15 K, x1 = 0.451) of 1374.6 ± 1 kg/m3. The viscosity (313.15 K, x1 = 0.027) was 0.882 ± 0.053 mPa·s, the viscosity (313.15 K, x1 = 0.049) was 1.093 ± 0.066 mPa·s and the viscosity (313.15 K, x1 = 0.063) was 1.26 ± 0.076 mPa·s. The viscosity (313.15 K, x1 = 0.086) was 1.565 ± 0.095 mPa·s, the viscosity (313.15 K, x1 = 0.101) was 1.768 ± 0.11 mPa·s and the viscosity (313.15 K, x1 = 0.147) was 2.591 ± 0.16 mPa·s. For the same compound, the viscosity (313.15 K, x1 = 0.184) was 3.38 ± 0.2 mPa·s, the viscosity (313.15 K, x1 = 0.213) was 4.172 ± 0.25 mPa·s and the viscosity (313.15 K, x1 = 0.25) was 5.814 ± 0.35 mPa·s. The viscosity (313.15 K, x1 = 0.299) was 6.713 ± 0.41 mPa·s, the viscosity (313.15 K, x1 = 0.341) was 8.366 ± 0.51 mPa·s and the viscosity (313.15 K, x1 = 0.401) was 12.27 ± 0.75 mPa·s. The viscosity (313.15 K, x1 = 0.451) was 15.47 ± 0.94 mPa·s, the mass density (313.15 K, x1 = 0.027) was 1062.8 ± 0.5 kg/m3 and the mass density (313.15 K, x1 = 0.049) was 1106.4 ± 0.4 kg/m3. It also gave a mass density (313.15 K, x1 = 0.063) of 1131.6 ± 0.4 kg/m3, a mass density (313.15 K, x1 = 0.086) of 1165.8 ± 0.4 kg/m3 and a mass density (313.15 K, x1 = 0.101) of 1185.2 ± 0.3 kg/m3. It also gave a mass density (313.15 K, x1 = 0.147) of 1234.3 ± 0.4 kg/m3, a mass density (313.15 K, x1 = 0.184) of 1264.6 ± 0.4 kg/m3 and a mass density (313.15 K, x1 = 0.213) of 1284.3 ± 0.4 kg/m3. It also gave a mass density (313.15 K, x1 = 0.25) of 1305 ± 0.4 kg/m3, a mass density (313.15 K, x1 = 0.299) of 1326.7 ± 0.5 kg/m3 and a mass density (313.15 K, x1 = 0.341) of 1341.9 ± 0.6 kg/m3. The mass density (313.15 K, x1 = 0.401) was 1360.5 ± 0.8 kg/m3, the mass density (313.15 K, x1 = 0.451) was 1371.1 ± 1 kg/m3 and the viscosity (318.15 K, x1 = 0.027) was 0.808 ± 0.049 mPa·s. The viscosity (318.15 K, x1 = 0.049) was 1.004 ± 0.061 mPa·s, the viscosity (318.15 K, x1 = 0.063) was 1.146 ± 0.069 mPa·s and the viscosity (318.15 K, x1 = 0.086) was 1.414 ± 0.086 mPa·s. The viscosity (318.15 K, x1 = 0.101) was 1.599 ± 0.097 mPa·s, the viscosity (318.15 K, x1 = 0.147) was 2.321 ± 0.14 mPa·s and the viscosity (318.15 K, x1 = 0.184) was 3.012 ± 0.18 mPa·s. The viscosity (318.15 K, x1 = 0.213) was 3.702 ± 0.22 mPa·s, the viscosity (318.15 K, x1 = 0.25) was 5.096 ± 0.31 mPa·s and the viscosity (318.15 K, x1 = 0.299) was 5.898 ± 0.36 mPa·s. It also gave a viscosity (318.15 K, x1 = 0.341) of 7.312 ± 0.44 mPa·s, a viscosity (318.15 K, x1 = 0.401) of 10.62 ± 0.65 mPa·s and a viscosity (318.15 K, x1 = 0.451) of 13.29 ± 0.81 mPa·s. It also gave a mass density (318.15 K, x1 = 0.027) of 1061 ± 0.5 kg/m3, a mass density (318.15 K, x1 = 0.049) of 1103.7 ± 0.4 kg/m3 and a mass density (318.15 K, x1 = 0.063) of 1128.8 ± 0.4 kg/m3. The mass density (318.15 K, x1 = 0.086) was 1162.8 ± 0.4 kg/m3, the mass density (318.15 K, x1 = 0.101) was 1182.1 ± 0.3 kg/m3 and the mass density (318.15 K, x1 = 0.147) was 1230.9 ± 0.4 kg/m3. For the same compound, the mass density (318.15 K, x1 = 0.184) was 1261.3 ± 0.4 kg/m3, the mass density (318.15 K, x1 = 0.213) was 1280.9 ± 0.4 kg/m3 and the mass density (318.15 K, x1 = 0.25) was 1301.6 ± 0.4 kg/m3. The mass density (318.15 K, x1 = 0.299) was 1323.3 ± 0.5 kg/m3, the mass density (318.15 K, x1 = 0.341) was 1338.5 ± 0.6 kg/m3 and the mass density (318.15 K, x1 = 0.401) was 1357.1 ± 0.8 kg/m3. It also gave a mass density (318.15 K, x1 = 0.451) of 1367.7 ± 1 kg/m3, a viscosity (323.15 K, x1 = 0.027) of 0.744 ± 0.045 mPa·s and a viscosity (323.15 K, x1 = 0.049) of 0.92 ± 0.056 mPa·s. For the same compound, the viscosity (323.15 K, x1 = 0.063) was 1.047 ± 0.063 mPa·s, the viscosity (323.15 K, x1 = 0.086) was 1.287 ± 0.078 mPa·s and the viscosity (323.15 K, x1 = 0.101) was 1.456 ± 0.088 mPa·s. The viscosity (323.15 K, x1 = 0.147) was 2.096 ± 0.13 mPa·s, the viscosity (323.15 K, x1 = 0.184) was 2.702 ± 0.16 mPa·s and the viscosity (323.15 K, x1 = 0.213) was 3.309 ± 0.2 mPa·s. It also gave a viscosity (323.15 K, x1 = 0.25) of 4.482 ± 0.27 mPa·s, a viscosity (323.15 K, x1 = 0.299) of 5.226 ± 0.32 mPa·s and a viscosity (323.15 K, x1 = 0.341) of 6.446 ± 0.39 mPa·s. It also gave a viscosity (323.15 K, x1 = 0.401) of 9.272 ± 0.56 mPa·s and a viscosity (323.15 K, x1 = 0.451) of 11.53 ± 0.7 mPa·s.
